Reference: paper PMC3914206

What was measured:
panel of 442 kinases [1] = target: T1, panel of 442 kinases (Homo sapiens, UniProt Q15835); format: binding; settings: Compound Concentration 10 µM
T1 construct: purchased KINOMEscan
T1 sequence (Q15835 1-563): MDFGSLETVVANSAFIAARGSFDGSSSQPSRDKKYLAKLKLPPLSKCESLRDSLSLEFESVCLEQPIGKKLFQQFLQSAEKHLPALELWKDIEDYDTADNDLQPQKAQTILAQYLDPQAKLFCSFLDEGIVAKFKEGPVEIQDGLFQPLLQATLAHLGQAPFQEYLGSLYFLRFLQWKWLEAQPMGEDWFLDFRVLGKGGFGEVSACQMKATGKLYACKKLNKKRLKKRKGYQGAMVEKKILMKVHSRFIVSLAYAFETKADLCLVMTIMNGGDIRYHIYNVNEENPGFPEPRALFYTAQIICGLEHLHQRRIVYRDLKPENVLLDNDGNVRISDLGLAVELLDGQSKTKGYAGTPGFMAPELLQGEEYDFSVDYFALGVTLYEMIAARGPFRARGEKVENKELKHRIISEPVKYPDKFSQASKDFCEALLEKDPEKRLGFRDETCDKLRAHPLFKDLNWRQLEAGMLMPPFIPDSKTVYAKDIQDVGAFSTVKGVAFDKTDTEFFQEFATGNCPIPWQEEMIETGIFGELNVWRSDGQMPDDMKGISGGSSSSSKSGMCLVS
From the text: (§1) We assessed the selectivity of members of this scaffold using the KINOMEscan methodology across a near comprehensive panel of 442 kinases [[18,27]].

panel of 442 kinases [2] = target: T2, panel of 442 kinases (Homo sapiens, UniProt O15146); format: binding; settings: Compound Concentration 10 µM
T2 construct: purchased KINOMEscan
T2 sequence (O15146 24-869): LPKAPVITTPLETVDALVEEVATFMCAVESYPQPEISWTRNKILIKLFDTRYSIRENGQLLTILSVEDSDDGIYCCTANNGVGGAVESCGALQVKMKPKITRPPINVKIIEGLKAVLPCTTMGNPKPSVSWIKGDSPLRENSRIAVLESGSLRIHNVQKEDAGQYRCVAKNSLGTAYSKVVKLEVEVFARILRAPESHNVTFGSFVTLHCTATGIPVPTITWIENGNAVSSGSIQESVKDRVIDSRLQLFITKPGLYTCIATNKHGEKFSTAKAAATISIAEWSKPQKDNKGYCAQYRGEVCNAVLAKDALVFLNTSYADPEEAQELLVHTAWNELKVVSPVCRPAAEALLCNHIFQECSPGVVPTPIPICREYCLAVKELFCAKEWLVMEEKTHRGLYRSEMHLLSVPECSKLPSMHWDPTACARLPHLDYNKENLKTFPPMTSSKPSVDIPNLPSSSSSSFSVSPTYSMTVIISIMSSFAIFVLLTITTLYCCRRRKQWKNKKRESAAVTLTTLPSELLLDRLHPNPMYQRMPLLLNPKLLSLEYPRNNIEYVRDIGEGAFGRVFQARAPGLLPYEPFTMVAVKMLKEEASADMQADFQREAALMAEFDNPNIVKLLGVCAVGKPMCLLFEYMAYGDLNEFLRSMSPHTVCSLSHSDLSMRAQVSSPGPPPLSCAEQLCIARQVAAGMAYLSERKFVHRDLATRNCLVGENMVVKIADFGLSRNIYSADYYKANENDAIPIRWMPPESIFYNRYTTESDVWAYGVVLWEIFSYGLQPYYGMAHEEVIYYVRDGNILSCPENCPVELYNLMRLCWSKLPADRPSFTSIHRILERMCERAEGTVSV
From the text: as §1

Row | SMILES | KINOMEscan: GRK1 (panel of 442 kinases [1]) | KINOMEscan: MUSK (panel of 442 kinases [2])
1 | COc1cc(C(=O)N2CCC(N3CCN(C)CC3)CC2)ccc1Nc1ncc2c(n1)N(C)c1ccccc1C(=O)N2C [15 (LRRK2-IN-1)] | 91 | 99
2 | COc1cc(C(=O)N2CCC(N3CCN(C)CC3)CC2)ccc1Nc1ncc2c(n1)N(C1CCCC1)c1ccccc1C(=O)N2C [Compound 25, 11-cyclopentyl-2-((2-methoxy-4-(4-(4-methylpiperazin-1-yl)piperidine-1-carbonyl)phenyl)amino)-5-methyl-5H-benzo[e]pyrimido[5,4-b][1,4]diazepin-6(11H)-one] | 85 | 100
3 | CCOc1cc(C(=O)N2CCC(N3CCN(C)CC3)CC2)ccc1Nc1ncc2c(n1)N(C1CCCC1)c1ccccc1C(=O)N2C [Compound 26] | 100 | 100
